According to PubChem BioAssay AID248 (DTP/NCI, 2004):
“And” between values parts separate entries of the source, which are not always exact repeats. Equal values may be shown once. Inconclusive results and toxic doses are left out. No stated cut-off is given here; in the data, active means T/C of 150% or more; inactive means T/C below 125%.

Tested on: L1210 leukemia ip in BDF1 mice, survival T/C
Experiment: NCI In Vivo Anticancer Drug Screen. Data for tumor model L1210 Leukemia (intraperitoneal) in B6D2F1 (BDF1) mice
Conditions: endpoint: mean survival time, higher = longer survival
In short: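 Transplanted-tumor mice were given test agent; controls received vehicle only. Survival readings from the two groups were divided (treated over control).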

[1] = dose: 100.0 mg/kg/injection, schedule: Q01DX009 (ip), vehicle: Klucel (hydroxypropylcellulose) (HPC)
[2] = dose: 200.0 mg/kg/injection, schedule: Q01DX009 (ip), vehicle: Klucel (hydroxypropylcellulose) (HPC)
[3] = dose: 12.5 mg/kg/injection, schedule: Q04DX003 (ip), vehicle: Klucel (hydroxypropylcellulose) (HPC)
[4] = dose: 25.0 mg/kg/injection, schedule: Q04DX003 (ip), vehicle: Klucel (hydroxypropylcellulose) (HPC)
[5] = dose: 50.0 mg/kg/injection, schedule: Q04DX003 (ip), vehicle: Klucel (hydroxypropylcellulose) (HPC)
[6] = dose: 100.0 mg/kg/injection, schedule: Q01DX009 (ip), vehicle: saline
[7] = dose: 200.0 mg/kg/injection, schedule: Q01DX009 (ip), vehicle: saline
[8] = dose: 50.0 mg/kg/injection, schedule: Q01DX001 (ip), vehicle: saline
[9] = dose: 100.0 mg/kg/injection, schedule: Q01DX001 (ip), vehicle: saline
[10] = dose: 200.0 mg/kg/injection, schedule: Q01DX001 (ip), vehicle: saline
[11] = dose: 400.0 mg/kg/injection, schedule: Q01DX001 (ip), vehicle: saline
[12] = dose: 100.0 mg/kg/injection, schedule: Q04DX003 (ip), vehicle: Klucel (hydroxypropylcellulose) (HPC)
[13] = dose: 200.0 mg/kg/injection, schedule: Q04DX003 (ip), vehicle: Klucel (hydroxypropylcellulose) (HPC)
[14] = dose: 400.0 mg/kg/injection, schedule: Q04DX003 (ip), vehicle: Klucel (hydroxypropylcellulose) (HPC)

Measured: T/C

CN(C)c1ccc(I)cc1
inactive: dose: 25.0 mg/kg/injection, schedule: Q01DX001 (ip), vehicle: saline with Tween-80 107 % of control | dose: 50.0 mg/kg/injection, schedule: Q01DX001 (ip), vehicle: saline with Tween-80 110 % of control

Clc1nc(Sc2ccc(Br)cc2)c(Cl)c(Sc2ccc(Br)cc2)n1
inactive: dose: 62.5 mg/kg/injection, schedule: Q01DX001 (ip), vehicle: Klucel (hydroxypropylcellulose) (HPC) 95 % of control and 89 % of control | dose: 125.0 mg/kg/injection, schedule: Q01DX001 (ip), vehicle: Klucel (hydroxypropylcellulose) (HPC) 94 % of control | dose: 250.0 mg/kg/injection, schedule: Q01DX001 (ip), vehicle: Klucel (hydroxypropylcellulose) (HPC) 94 % of control and 98 % of control

CC1(C)c2ccccc2C(=O)/C(=C/c2ccccc2)C1NC1CCCCC1 (stereo not given)
inactive: dose: 100.0 mg/kg/injection, schedule: Q01DX001 (ip), vehicle: Klucel (hydroxypropylcellulose) (HPC) 95 % of control | [1] 102 % of control | dose: 200.0 mg/kg/injection, schedule: Q01DX001 (ip), vehicle: Klucel (hydroxypropylcellulose) (HPC) 93 % of control | [2] 96 % of control | dose: 400.0 mg/kg/injection, schedule: Q01DX001 (ip), vehicle: Klucel (hydroxypropylcellulose) (HPC) 92 % of control | dose: 400.0 mg/kg/injection, schedule: Q01DX009 (ip), vehicle: Klucel (hydroxypropylcellulose) (HPC) 106 % of control

CCOC(=O)c1c[n]([Hg][n]2cc(C(=O)OCC)c(Nc3ccccc3Br)nc2=O)c(=O)nc1Nc1ccccc1Br
inactive: dose: 3.0 mg/kg/injection, schedule: Q01DX009 (ip), vehicle: Klucel (hydroxypropylcellulose) (HPC) 95 % of control | dose: 6.0 mg/kg/injection, schedule: Q01DX009 (ip), vehicle: Klucel (hydroxypropylcellulose) (HPC) 93 % of control | dose: 6.25 mg/kg/injection, schedule: Q04DX003 (ip), vehicle: Klucel (hydroxypropylcellulose) (HPC) 96 % of control | dose: 12.0 mg/kg/injection, schedule: Q01DX009 (ip), vehicle: Klucel (hydroxypropylcellulose) (HPC) 96 % of control | [3] 96 % of control and 103 % of control | [4] 88 % of control | [5] 100 % of control

CCCCCCCC(=O)OCCCl
inactive: [6] 94 % of control | [7] 97 % of control | dose: 400.0 mg/kg/injection, schedule: Q01DX009 (ip), vehicle: saline 91 % of control

NC(=O)N(CCc1ccccc1)N=O
inactive: dose: 6.25 mg/kg/injection, schedule: Q01DX Z (ip), vehicle: carboxymethylcellulose (CMC) 98 % of control | dose: 12.5 mg/kg/injection, schedule: Q01DX Z (ip), vehicle: carboxymethylcellulose (CMC) 109 % of control | dose: 25.0 mg/kg/injection, schedule: Q01DX Z (ip), vehicle: carboxymethylcellulose (CMC) 98 % of control | dose: 50.0 mg/kg/injection, schedule: Q01DX Z (ip), vehicle: carboxymethylcellulose (CMC) 118 % of control | dose: 75.0 mg/kg/injection, schedule: Q01DX Z (ip), vehicle: carboxymethylcellulose (CMC) 103 % of control | dose: 100.0 mg/kg/injection, schedule: Q01DX Z (ip), vehicle: carboxymethylcellulose (CMC) 114 % of control | dose: 150.0 mg/kg/injection, schedule: Q01DX Z (ip), vehicle: carboxymethylcellulose (CMC) 120 % of control | dose: 200.0 mg/kg/injection, schedule: Q01DX Z (ip), vehicle: carboxymethylcellulose (CMC) 111 % of control

CCCCC(CC)C(=O)CC(C)=O (stereo not given)
inactive: [8] 103 % of control | [9] 95 % of control | [10] 103 % of control | [11] 97 % of control

Cc1cn[nH]c1-c1ccccc1O
inactive: dose: 100.0 mg/kg/injection, schedule: Q04DX002 (ip), vehicle: saline with Tween-80 96 % of control | dose: 200.0 mg/kg/injection, schedule: Q04DX002 (ip), vehicle: saline with Tween-80 100 % of control | dose: 400.0 mg/kg/injection, schedule: Q04DX002 (ip), vehicle: saline with Tween-80 100 % of control

Cc1ccc(C)n1CCO
inactive: dose: 44.0 mg/kg/injection, schedule: Q01DX Z (ip), vehicle: saline 106 % of control | dose: 66.0 mg/kg/injection, schedule: Q01DX Z (ip), vehicle: saline 94 % of control | dose: 100.0 mg/kg/injection, schedule: Q01DX Z (ip), vehicle: saline 96 % of control

CCCCCCCCCCCCCCCCSc1ccc(C)cc1
inactive: dose: 100.0 mg/kg/injection, schedule: Q01DX009 (ip), vehicle: other 88 % of control | [12] 89 % of control | dose: 200.0 mg/kg/injection, schedule: Q01DX009 (ip), vehicle: other 88 % of control | [13] 93 % of control | dose: 400.0 mg/kg/injection, schedule: Q01DX009 (ip), vehicle: other 112 % of control | [14] 96 % of control

Cc1ccc2c(c1)C1CCC3(CC1OC2(C)C)OC(C)(C)c1cc(C)ccc13 (stereo not given)
inactive: [1] 95 % of control | [12] 105 % of control | [2] 89 % of control | [13] 95 % of control | [14] 95 % of control

CCOC(=O)/C(C)=N\N(C)C
inactive: [6] 92 % of control | dose: 100.0 mg/kg/injection, schedule: Q04DX003 (ip), vehicle: saline 97 % of control | [7] 92 % of control | dose: 200.0 mg/kg/injection, schedule: Q04DX003 (ip), vehicle: saline 101 % of control | dose: 400.0 mg/kg/injection, schedule: Q04DX003 (ip), vehicle: saline 88 % of control

CN(C)S(=O)(=O)/C=C/c1ccccc1
inactive: [13] 95 % of control | [14] 109 % of control

Cc1c(CN(C)C)cccc1C(=O)Nc1ccccc1
inactive: [8] 115 % of control | [10] 104 % of control

COc1nc(=O)n(C2OC(CO)C(O)C2O)cc1F (stereo not given)
inactive: [8] 95 % of control | [9] 90 % of control | [10] 93 % of control | [11] 90 % of control

Clc1ccc(N=CC2CCC=CO2)cc1 (stereo not given)
inactive: dose: 222.0 mg/kg/injection, schedule: Q01DX Z (ip), vehicle: saline 92 % of control | dose: 333.0 mg/kg/injection, schedule: Q01DX Z (ip), vehicle: saline 95 % of control | dose: 500.0 mg/kg/injection, schedule: Q01DX Z (ip), vehicle: saline 92 % of control

Cc1ccc(O)c(N=O)c1.[Cu+2]
inactive: [8] 97 % of control | [9] 103 % of control | [10] 103 % of control

O=C(Oc1ccccc1)C1OC1c1ccccc1 (stereo not given)
inactive: dose: 100.0 mg/kg/injection, schedule: Q04DX003 (ip), vehicle: alcohol 103 % of control | dose: 200.0 mg/kg/injection, schedule: Q04DX003 (ip), vehicle: alcohol 98 % of control | dose: 400.0 mg/kg/injection, schedule: Q04DX003 (ip), vehicle: alcohol 105 % of control

COc1ccc(C(=O)CBr)c(OC)c1C
inactive: dose: 12.5 mg/kg/injection, schedule: Q01DX009 (ip), vehicle: Klucel (hydroxypropylcellulose) (HPC) 94 % of control | [3] 100 % of control | dose: 25.0 mg/kg/injection, schedule: Q01DX009 (ip), vehicle: Klucel (hydroxypropylcellulose) (HPC) 91 % of control | [4] 105 % of control | [5] 96 % of control

CN1C(=O)C(C)(C)C(=O)c2ccccc21
inactive: dose: 100.0 mg/kg/injection, schedule: Q04DX002 (ip), vehicle: other 90 % of control | dose: 200.0 mg/kg/injection, schedule: Q04DX002 (ip), vehicle: other 100 % of control | dose: 400.0 mg/kg/injection, schedule: Q04DX002 (ip), vehicle: other 97 % of control
